Measured values reported in patent publication EP0987250A1, “INDOLE DICARBOXYLIC ACID DERIVATIVES” (SHIONOGI & CO., LTD., priority 1997, dated 1998).

How the values were obtained:
[1] = Evaluation of solubility in water; type: physicochemical; settings: thermodynamic from solid; Na salt: monosodium salt of 10 and 21, disodium salt (20) of 11; water added dropwise by 10 µl; corrected for mg in 1 ml at 23°C
Protocol: A solution of 10.3 mg (24.3 µmol) of compound (11) in 4.85 ml (48.6 µmol) of a 0.01 M methanolic solution of sodium methylate was filtered through a Millipore filter and then concentrated. The resulting residue was dried under reduced pressure to obtain disodium salt (20).

[2] = target: T1, human sPLA2 (Homo sapiens, UniProt P14555); experiment: In vitro test for sPLA2-inhibitory action by PC/DOC method; type: biochemical; settings: PC/DOC = 1 mM/3 mM; Tris buffer 50 mM, pH 8.0; 40°C for 30 minutes; oleic acid measured by HPLC
T1 sequence (P14555 21-144): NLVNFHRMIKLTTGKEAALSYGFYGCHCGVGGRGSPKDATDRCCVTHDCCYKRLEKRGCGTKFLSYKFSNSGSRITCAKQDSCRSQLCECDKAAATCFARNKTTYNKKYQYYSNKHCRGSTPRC
Protocol: A 50 mM solution of 1-palmitoyl-1-oleoyl-sn-glycero-3-phosphatidylcholine in chloroform (PC) was used as a substrate. A 150 mM solution of sodium deoxycholate in methanol (DOC) was used as a surface-active agent
First, the substrate and the surface-active agent were transferred into an Eppendorf tube and the solvent was evaporated by applying a nitrogen stream. Then, the tube was placed in a desiccator and evacuated with a pump to complete dryness. Thereto was added water in an amount to be used for the assay and the solution was stirred for 1 minute. The final concentrations were adjusted so as to make PC/DOC = 1 mM/3 mM.
As the buffer solution for measurement was prepared a Tris buffer solution (50 mM, pH 8.0) containing 150 mM sodium chloride, calcium chloride (10 mM), and bovine serum albumin (1 mg/ml).
To a test compound solution were added the substrate solution and the buffer solution for measurement prepared as described above and the resulting mixture was stirred to mix. […] HPLC analysis was carried out under the following analysis conditions: Column: Supersphere ^R60 RP-8 (Merck & Co.) Mobile: Phase: Acetonitrile : Distilled water (93:7) Detection: Absorbance at 254 nm
The inhibitory activity of the compound was calculated from the amount of oleic acid thus-measured.

Structure (SMILES)	solubility [1]	IC50 [2]
CCc1c(C(=O)C(N)=O)c2c(OCC(=O)O)cc(C(=O)OC)cc2n1Cc1ccccc1 [compound 10]	68 mg/mL	1.7 nM
CCc1c(C(=O)C(N)=O)c2c(OCC(=O)O)cccc2n1Cc1ccccc1 [Compound 21, reference compound]	1.4 mg/mL	–
CCc1c(C(=O)C(N)=O)c2c(OCC(=O)O)cc(C(=O)O)cc2n1Cc1ccccc1 [Compound 11, 1-Benzyl-6-carboxy-4-carboxymethyloxy-2-ethyl-3-oxamoyl-1H-indole]	228 mg/mL	43.8 nM
